Experimental data published in PubChem BioAssay (NCI).
“And” between values parts separate entries of the source, which are not always exact repeats. Equal entries are not always repeated.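 48-hour exposure; five concentrations; linearly interpolated endpoints. GI50: concentration for 50% inhibition of growth. Definition used: TGI = concentration required for complete inhibition of growth.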

Tests used:
Test in all cases: DTP human tumour cell line panel, 48 h
PC-3 prostate = system: PC-3 prostate
MOLT-4 leukemia = system: MOLT-4 leukemia
KM12 colon = system: KM12 colon
IGROV1 ovarian = system: IGROV1 ovarian
SK-OV-3 ovarian = system: SK-OV-3 ovarian
NCI-H522 lung = system: NCI-H522 lung
UACC-62 melanoma = system: UACC-62 melanoma
SR leukemia = system: SR leukemia
A498 renal = system: A498 renal
SF-295 CNS = system: SF-295 CNS

SMILES	TGI (PC-3 prostate)	TGI (MOLT-4 leukemia)	TGI (KM12 colon)	TGI (IGROV1 ovarian)	TGI (SK-OV-3 ovarian)	TGI (NCI-H522 lung)	TGI (UACC-62 melanoma)	TGI (SR leukemia) [µM]	TGI (A498 renal)	TGI (SF-295 CNS)	GI50 (PC-3 prostate)	GI50 (MOLT-4 leukemia) [µM]	GI50 (KM12 colon)	GI50 (IGROV1 ovarian)	GI50 (NCI-H522 lung) [µM]	GI50 (UACC-62 melanoma)	GI50 (SR leukemia) [µM]	GI50 (A498 renal) [µM]	GI50 (SF-295 CNS) [µM]	GI50 (SK-OV-3 ovarian) [µM]
O=C1C=CC(=O)N1c1ccc(I)cc1	40.7 µM	7.49 µM	45.8 µM	> 67.3 µM	32.5 µM	47.4 µM	31.8 µM	45.5	39.2 µM	55.5 µM										
O=C(O)CNCCc1ccccc1	> 100 µM		> 100 µM	> 100 µM	> 100 µM	> 100 µM	> 100 µM	> 100	> 100 µM	> 100 µM										
N#C/C(=C\c1ccc(F)cc1)n1nc2cccc(F)c2n1	> 100 µM	> 100 µM	> 100 µM	> 100 µM		> 100 µM	> 100 µM	> 100	7.25 µM	> 100 µM	4.68 µM	3.09	2.83 µM	5.01 µM	3.24	3.3 µM	2.31	2.04	3.53	
O=C1c2cccnc2C(=O)c2c1c(C(=O)OCCc1ccccn1)c1ccccn21	6.57 µM	> 36.7 µM	> 22.4 µM	4.73 µM	1.17 µM	0.714 µM	0.219 µM	> 100	0.824 µM	1.77 µM	0.0563 µM	1.09	0.0946 µM	0.0421 µM	0.12	0.0202 µM	< 0.01	< 0.0378	0.342	0.0539
FC(F)(F)c1ccc(-c2ncc(-c3ccc(C(F)(F)F)cc3)c(NCc3cc(C(F)(F)F)cc(C(F)(F)F)c3)n2)cc1	18.3 µM	71.8 µM	63.2 µM	> 100 µM	55.2 µM	22.6 µM	> 100 µM	> 100	8.75 µM	28.3 µM	3.09 µM	4.35	4.3 µM	9.02 µM	3.29	3.77 µM	5.07	2.31	2.94	7.03
O=c1[nH]c(F)nc2c1ncn2C1OC(CO)C(O)C1O (stereo unspecified)	> 100 µM	> 100 µM	> 100 µM	> 100 µM	> 100 µM		> 100 µM	> 100	> 100 µM	> 100 µM	> 100 µM	> 100	> 100 µM	> 100 µM		> 100 µM	> 100	> 100	> 100	> 100
Cn1c(NCC(CN2CCCC2)OC(=O)c2ccccc2)cc(=O)n(C)c1=O (stereo unspecified)	> 100 µM	> 100 µM		> 100 µM	> 100 µM	> 100 µM	> 100 µM	> 100	> 100 µM	> 100 µM	> 100 µM	> 100		> 100 µM	> 100	> 100 µM	> 100	> 100	> 100	> 100
CCOC(=O)[C@@H](C)C[C@H](Cc1ccccc1)NC(=O)c1csc([C@@H](C[C@H](C(C)C)N(C)C(=O)[C@@H](NC(=O)[C@H]2C[C@H](O)CCN2C)C(C)C)OC(C)=O)n1	> 16.7 µM	> 16.7 µM		> 16.7 µM	> 16.7 µM	0.0367 µM	> 16.7 µM	> 16.7	0.0879 µM	> 16.7 µM	0.00187 µM	0.00714	0.0023 µM	0.00209 µM	< 0.00167	< 0.00167 µM	< 0.00167	0.00721	0.00781	0.00474
C=C(CN1CCN(c2ccccc2C(F)(F)F)CC1)c1ccc(C(=O)Nc2ccccc2N)cc1	12 µM	2.55 µM	11.7 µM	> 100 µM	> 100 µM	> 28.1 µM	> 93.7 µM	5.95	31.8 µM	42.9 µM	1.91 µM	0.125	2.04 µM	6.03 µM	1.91	9.16 µM	2.36	5.36	5.98	11
FC(F)(F)c1cc(-c2ncn(/C=C\c3nnco3)n2)cc(C(F)(F)F)c1	> 36.9 µM	0.938 µM	> 32.7 µM	> 100 µM	> 67.3 µM	0.445 µM	6.76 µM	12.6	0.0639 µM	> 43.3 µM	0.093 µM	0.0284	0.346 µM	0.676 µM	0.0381	0.189 µM	0.0246	< 0.0128	0.0634	0.223
CC1(C)OC2C(CO)OC(n3ccc(N)nc3=O)C2O1 (stereo unspecified)	> 100 µM	> 100 µM	> 100 µM	> 100 µM	> 100 µM	> 100 µM	> 100 µM	> 100	> 100 µM	> 100 µM										
C=C1C(=O)OC2CC1C(OC(C)=O)C/C(C)=C/CC/C(C)=C\CCC2(C)O (stereo unspecified)	19.6 µM and > 100 µM	6.23 µM and 7.81 µM	32.3 µM and 19.4 µM	14.5 µM and 20.1 µM	61.7 µM and 46.6 µM	3.16 µM and 3.13 µM	26.1 µM and 12.9 µM	4.85	17.1 µM and 21.4 µM	46.8 µM and 37 µM	6.08 µM and 19.9 µM		11.6 µM and 5.11 µM	3.34 µM and 6.68 µM		11.3 µM and 2.89 µM				
CCCOc1ccc(/C=N/Nc2cc(C)nc3ccc(Cl)cc23)cc1	3.13 µM	3.77 µM	3.35 µM	3.63 µM	3.18 µM	3.42 µM	3.24 µM	3.75	3.16 µM	3.2 µM	1.53 µM	1.81	1.8 µM	1.92 µM	1.75	1.76 µM	1.17	1.72	1.72	1.78
CCCCCCc1cc2cc(-c3csc(/C=C/c4ccccc4)n3)c(=O)oc2cc1O	34.4 µM	15.1 µM	16.4 µM	38.3 µM	80.3 µM	17.9 µM	28.1 µM	9.69	30.5 µM	27.2 µM	5.39 µM	3.72	4.42 µM	15.9 µM	3.93	13.9 µM	2.88	14.4	13.1	28.1
